Data reported in patent publication US11033545B2, “Negative allosteric modulators of MGLUR5 for use in the treatment of mature brain damages” (Sinntaxis AB, priority 2016, dated 2021).

Assays:
male C57/BL6 mice [1] = test: Paw placement test after photothrombotic stroke in the mouse; type: in vivo
male Sprague Dawley rats = test: Paw placement test after photothrombotic stroke in the rat; type: in vivo
Protocol: Animals. All experiments were carried out with the approval of the Malmö-Lund animal review board and according to the ARRIVE guidelines. Animals were housed under reverse light conditions, with the testing performed during the dark period when the rats are active. The experiments were carried out on male Sprague Dawley rats (11 weeks of age, Charles River, Scanbur A/S Karlslunde, Denmark). The studies were subjected to randomization and carried out in a blinded fashion to the investigators who performed the surgeries and behavioral assessment.
Administration of compound. The compound was injected as a bolus dose of 1 ml/kg into the lower quadrant of the abdomen.
(§1) Experimental stroke. The animals were anesthetized by isoflurane (approximately 2% in 02 under spontaneous ventilation) and placed into stereotaxic frame. Temperature was monitored during surgery using a rectal temperature probe and animals were kept at 37.0-37.5±0.2° C. by means of a heating pad with feedback control. A sagittal skin incision was made and subcutaneous connective tissue was removed and the skull was dried. Thereafter, the photosensitizer dye Rose Bengal (0.5 mL at 10 mg/mL) was infused in the tail vein. Two minutes after injection, the skull was illuminated with cold light (Schott, KL 1500 LCD) on an area of 8 to 4.5 mm for 15 min (from +4 to −4 mm antero-posterior and from 0.5 to 5 mm on the left from bregma). Thereafter the tail and the scalp incisions were sutured and the rats transferred to their home cage. The functional deficit was assessed 2 h after the onset of the stroke using the limb placement test and only the animals having a score 0, for both fore- and hindlimb contralateral to the brain damaged hemisphere were used for the study.
Test of neurological function. The paw placement test. The cortical damage inflicted by the phothrombosis, causes a deficit due to neuronal loss in the sensori-motor area and depression of functions in neuronal networks in the vicinity of the lesion. […] This test provides information on the tactile/proprioceptive response to limb stimulation. Animals were placed with all 4 paws on the table top, and the paws to be tested along the edge. The rat was moved over the edge so the paws to be tested loose contact with the table surface. The ability of the animals to place the limb back onto the table surface when the rat was moved towards the edge was evaluated. Importantly, the head was held at 45° angle, so that visual and whisker/snout stimulation was prevented. A prompt placement of the limb onto the table was scored as 1. Incomplete placing of the limb was scored as 0.5, and complete extension of the limb and paw was scored as 0. In order to obtain groups with a similar functional deficit prior to treatment of the animals with drugs or vehicle, selective sorting was performed on day 2 after experimental stroke, a time point of recovery when the infarct development had subsided.
(§2) Administration of the compounds. The compounds were administrated orally (p.o.) by catheters placed in the stomach. The amount of solutions were 0.2 ml/rat and 0.1 ml/mice.
(§3) Induction of stroke was as made as in Example 1 for rats and as in Example 2 in mice. Assessment of neurological function was performed as in Example 1 for rats and as in Example 2 for mice. The animals were perfused and immunostained as in Example 1, and the infarct size was assessed as in Example 1.
Induction of stroke, assessment of neurological function, perfusion of animals, immunostaining and assessment of infarct size were made as in Example 1.

male C57/BL6 mice [2] = test: Paw placement test after photothrombotic stroke in the mouse; type: in vivo; conditions: for paw function: continued for 5 days, FIG. 3C
Protocol: Animals. All experiments were carried out with the approval of the Malmo-Lund animal review board and according to the ARRIVE guidelines. The experiments were carried out on male C57/BL6 mice (8 weeks of age, Charles River Scanbur A/S Karlslunde, Denmark). Studies were subjected to randomization and carried out in a blinded fashion to the investigators who performed the surgeries and behavioral assessment.
Materials were as in Example 1 and the administration of the drug was made as in Example 1. Also the positive allosteric modulator (PAM) for the mGlur5 receptor was SIN006 (N-Cyclobutyl-6-[2-(3-fluorophenyl)ethynyl]-3-pyridinecarboxamide hydrochloride; VU0360172).
Induction of stroke in the mouse. Mice were subjected to unilateral photothrombotic (PT) cortical infarct in the left sensori-motor cortex. During surgery, the body temperature of the animals was kept at 37° C. using a self-regulating heating pad. Animals were anesthetized using 1.5-2.5% isoflurane (Sigma) in 100% 02. The skin above the skull was incised; a fiber optic bundle with a 2.5 mm aperture diameter was connected to a cold light source (CL 1500 ECO, Zeiss, Germany) and adjusted to the stereotaxic coordinates of the sensori-motor cortex, 0.5 mm anterior to bregma and 1.5 mm lateral to midline. One intraperitoneal (i.p.) injection of 0.25 ml Rose Bengal (10 mg/ml in 0.9% saline; Sigma-Aldrich, Germany) was given 5 min before the light was turned on for 20 minutes. Care was taken not to exceed 38° C. at the skull surface, underneath the fiber optic bundle. Post surgery, animals were allowed to awake from anesthesia while on a heating pad and returned to the cages with free access to food pellets and water.
Enriched housing. It is well known that housing of rodents in an enriched environment stimulates the various sensori-motor systems of the brain enhancing recovery after experimental stroke. Enriched housing was accomplished by the following procedure. After selective sorting at day 2 after stroke, mice were randomly distributed into standard (STD, 17 cm×16 cm×34.5 cm) or enriched cages (EE, 30 cm×27 cm×43 cm). Multilevel-enriched cages were equipped with various colored objects such as plastic tunnels, small houses, slides and rodent running wheels; the disposition of the objects was changed every second day. Mice were housed in either standard (2 animals/cage) or enriched cages (6-8 animals/cage) for 12 days. Animals in standard cages were handled similarly except for the housing condition.
Paw placement test. The mouse was held along its rostro-caudal extension on the edge of a bench and both the unilateral front and hind paws were gently pushed along it. The placement of each paw was recorded when the mouse was moved towards the edge. Sensori-motor dysfunction was assessed by using a score of 1, 0.5, and 0: (1)—the paw is immediately placed on the table surface; (0.5)—the limb is extended, but with some movements and attempts to place the paw on the surface of the table; (0)—the paw is totally immobilized, hanging down, with no movement. In order to obtain groups with a similar functional deficit prior to treatment of the animals with drugs or vehicle, selective sorting was performed on day 2 after experimental stroke, a time point of recovery when the infarct development had subsided.
as §2, §3

mGluR5 KO rats = test: Paw placement test after stroke in mGluR5 KO rats; type: in vivo, rat; conditions: SIN013 treatment, FIG. 3D
Protocol: as §1, with “Two minutes after injection, the skull was illuminated with cold light (Schott, KL 1500 LCD) on an area of 8 to 4.5 mm for 15 min (from +4 to −4 mm antero-posterior and from 0.5 to 5 mm on the left from bregma). Thereafter the tail and the scalp incisions were sutured and the rats transferred to their home cage.” left out
Test of neurological function. […] The ability of the animals to place the limb back onto the table surface when the rat was moved towards the edge was evaluated. […] A prompt placement of the limb onto the table was scored as 1. Incomplete placing of the limb was scored as 0.5, and complete extension of the limb and paw was scored as 0. […]
Induction of stroke was as made as in Example 1 for rats and as in Example 2 in mice. […] The animals were perfused and immunostained as in Example 1, and the infarct size was assessed as in Example 1.

## Cl.O=C(NC1CCC1)c1ccc(C#Cc2cccc(F)c2)nc1 [SIN006, N-Cyclobutyl-6-[2-(3-fluorophenyl)ethynyl]-3-pyridinecarboxamide hydrochloride]
Male C57/BL6 mice [1]; SIN006 30 mg/kg p.o. concomitant with 5 days enriched housing after stroke, FIG. 2E
  effect on enhanced recovery of function by enriched environment: completely blocked
Male C57/BL6 mice [1]; SIN006 30 mg/kg p.o. daily, 1 hour prior to SIN007 5 mg/kg i.p., starting two days after stroke, FIG. 2D
  paw placement score after 5 days of treatment: did not recover function

## Fc1ccc2nc(CCC#Cc3ccccn3)cn2c1 [SIN008, 6-Fluoro-2-[4-(pyridin-2-yl)-3-butynyl]imidazo[1,2-a]pyridine]
Male Sprague Dawley rats; rat, 30 mg/kg p.o. for 5 days, started 2 days after stroke, vs vehicle, FIG. 3A
  neurological function (paw placement): significantly improved neurological function

## CN1CC(=O)N=C1NC(=O)Nc1cccc(Cl)c1 [SIN010, 1-(3-chlorophenyl)-3-(3-methyl-5-oxo-4H-imidazol-2-yl)urea]
Male C57/BL6 mice [2]; mice, daily SIN010 plus enriched housing from 2 days after stroke, vs Vh, EE alone or SIN010 alone, FIG. 4B
  recovery of function, combined with enriched housing: further improves recovery
Male Sprague Dawley rats; rat, 10 mg/kg p.o. daily for 5 days or 12 days, initiated 2 days after stroke, FIG. 4A
  recovery of function: improves recovery function
Male Sprague Dawley rats; rat, 10 mg/kg p.o. daily for 12 days, initiated 2 days after stroke, vs vehicle, FIG. 4A
  improvement of function, time dependence: significant after 12 days of treatment

## Cc1nc(C#Cc2ccnc(Cl)c2)c(C)n1-c1ccc(OC(F)(F)F)cc1 [SIN013, 2-chloro-4-[2-[2,5-dimethyl-1-[4-(trifluoromethoxy)phenyl]imidazol-4-yl]ethynyl]pyridine]
Male C57/BL6 mice [2]; mouse, 2 mg/kg daily, started 2 days after stroke, p<0.05
  paw function: enhancement of function, which was significant
Male C57/BL6 mice [2]; mouse, 2 mg/kg every 48 h, started 2 days after stroke
  paw function: enhancement of function
mGluR5 KO rats
  recovery of paw placement function: recovery stimulated by SIN013 treatment was not seen
Male Sprague Dawley rats; wild type rat, 2 mg/kg/day p.o. for 5 days, initiated 2 days after stroke, vs vehicle, FIG. 3D
  paw placement function: significantly improved paw placement function

## Cc1nc(C#Cc2ccnc(Cl)c2)c(C)n1-c1ccc(F)cc1 [SIN014]
Male C57/BL6 mice [2]; mouse, 10 mg/kg p.o. for 5 days (higher dose; lower dose 5 mg/kg p.o.), FIG. 3E
  functional recovery: improved functional recovery at the higher dose

## COC(=O)N1CC[C@@H]2[C@H]1CCC[C@@]2(O)C#Cc1cccc(C)c1 [SIN 011, (3aR,4S,7aR)-Octahydro-4-hydroxy-4 [2-(3-methylphenyl)ethynyl]-1H-indole-1-carboxylic acid methyl ester]
Male C57/BL6 mice [2]; mouse, 30 mg/kg p.o. daily for 5 days, started 2 days after stroke, vs vehicle, p<0.01, FIG. 3B
  paw placement function: significant recovery of paw function

## N#Cc1cc(F)cc(-c2nc(-c3ccc(F)cn3)no2)c1 [SIN 015, 3-fluoro-5-(3-(5-fluoropyridin-2-yl)-1,2,4-oxadiazol5-yl)benzonitrile]
Male Sprague Dawley rats; rat, 3 mg/kg for 5 days starting 2 days after stroke, FIG. 4C
  recovery of function: improved recovery of function
